Columns and labels:
[1] = system: paw twitch; assay: Twitch depression (muscle relaxant effect) in anesthetized rabbits; rabbit paw twitch; type: in vivo, New Zealand White rabbits
Protocol: [The procedure below names another organism; the source lists this organism under the same test.] (§1) Mongrel dogs were injected with 50 mg/kg of pentobarbital until the onset of anesthesia as determined by the eyeblink reflex test. The injectable solutions prepared above were administered intravenously to the anesthesized mongrel dogs and measurements were made of the muscle relaxant effect including maximum twitch depression, onset, duration and recovery time in a clinically known manner. Each of the subjects were compared with a control animal receiving an injection of distilled water.
The same compound of the present invention as in
A number of compounds in accordance with the present invention were tested for their neuromuscular blockade Properties. Specifically, the acid addition salts of the compounds were dissolved in sterile water for injection.

[2] = Cardiovascular change (HR, BP) at equi-efficacious dose in rabbits; type: in vivo; settings: rabbit
[3] = system: paw twitch; assay: Twitch depression (muscle relaxant effect) in anesthetized dogs; dog paw twitch; type: in vivo, mongrel dogs; settings: Table V
Protocol: as §1

[4] = Cardiovascular change (HR, BP) at equi-efficacious dose in dogs; type: in vivo; settings: Table V, dog, at equi-efficacious dose
[5] = Table VI, rabbit paw twitch, at indicated dose
[6] = Table VII, rabbit paw twitch, at indicated dose
[7] = Table IV, rabbit, at equi-efficacious dose
[8] = Table IV, at equi-efficacious dose

In the case of `CC1(C)CC(N2CCC3(CC2)OCC2(CO3)COC3(CCN(C4=CC(=[N+]5CCOCC5)CC(C)(C)C4)CC3)OC2)=CC(=[N+]2CCOCC2)C1` [compound 49], the Onset [1, 5] is reported as 58.8 s.

`CC1(C)CC(N2CCC3(CC2)OCC2(CO3)COC3(CCN(C4=CC(=[N+]5CCc6ccccc6C5)CC(C)(C)C4)CC3)OC2)=CC(=[N+]2CCc3ccccc3C2)C1` [compound 48] showed an Onset ([1]; Table VI, rabbit paw twitch, at indicated dose, in s) of 113.5.

Molecule `CC1C[N+](=C2C=C(N3CCCC4(CC3)OCC3(CO4)COC4(CCCN(C5=CC(=[N+]6CCC7(OCCO7)C(C)C6)CC(C)(C)C5)CC4)OC3)CC(C)(C)C2)CCC12OCCO2` (stereo not drawn) [No. 11] has an Onset ([1]; Table VIII, rabbit paw twitch, at indicated dose) of 62.1 s.

`CC1CCC[N+](=C2C=C(N3CCC4(CC3)OCC3(CO4)COC4(CCN(C5=CC(=[N+]6CCCC(C)C6)CC(C)(C)C5)CC4)OC3)CC(C)(C)C2)C1` (stereo not drawn) [compound 33] gave an Onset [1, 5] of 53.1 s.

`CC1(C)CC(N2CCC3(CC2)OCC2(CO3)COC3(CCN(C4=CC(=[N+]5CCCCCCC5)CC(C)(C)C4)CC3)OC2)=CC(=[N+]2CCCCCCC2)C1` [compound 20] showed an Onset [1, 5] of 57.5 s.

`CC[N+](CC)=C1C=C(N2CCC3(CC2)OCC2(CO3)COC3(CCN(C4=CC(=[N+](CC)CC)CC(C)C4)CC3)OC2)CC(C)C1` (stereo not drawn) [compound 54] gave an Onset [1, 5] of 51 s.

With `CC1(C)CC(N2CCC3(CC2)OCC2(CO3)COC3(CCN(C4=CC(=[N+]5CC6CCC(CC6)C5)CC(C)(C)C4)CC3)OC2)=CC(=[N+]2CC3CCC(CC3)C2)C1` [compound 17] the Onset [1, 5] was 49.6 s.

Molecule `CC1(C)CC(N2CCC3(CC2)OCC2(CO3)COC3(CCN(C4=CC(=[N+](CC5CC5)CC(F)(F)F)CC(C)(C)C4)CC3)OC2)=CC(=[N+](CC2CC2)CC(F)(F)F)C1` [compound 51] has an Onset [1, 5] of 51 s.

`CC1(C)CC(N2CCC3(CC2)OCC2(CO3)COC3(CCN(C4=CC(=[N+]5CCCCCC5)CC(C)(C)C4)CC3)OC2)=CC(=[N+]2CCCCCC2)C1` [compound 24] gave an Onset [1, 5] of 64 s.

In the case of `C=CC[N+](CC=C)=C1C=C(N2CCC3(CC2)OCC2(CO3)COC3(CCN(C4=CC(=[N+](CC=C)CC=C)CC(C)(C)C4)CC3)OC2)CC(C)(C)C1` [compound 35], the Onset [1, 5] is reported as 61.9 s.

In the case of `CC1(C)CC(N2CCC3(CC2)OCC2(CO3)COC3(CCN(C4=CC(=[N+]5CCCCC5)CC(C)(C)C4)CC3)OC2)=CC(=[N+]2CCCCC2)C1` [compound 50], the Onset [1, 5] is reported as 59.9 s.

For `C[N+](CCc1ccccc1)=C1C=C(N2CCC3(CC2)OCC2(CO3)COC3(CCN(C4=CC(=[N+](C)CCc5ccccc5)CC(C)(C)C4)CC3)OC2)CC(C)(C)C1` [compound 36], the Onset [1, 5] was 81.9 s.

`COC1C[N+](=C2C=C(N3CCCC4(C3)OCC3(CO4)COC4(CCCN(C5=CC(=[N+]6CCC(OC)(OC)C(OC)C6)CC(C)(C)C5)C4)OC3)CC(C)(C)C2)CCC1(OC)OC` (stereo not drawn) showed an Onset [1, 6] of 44.4 s.

Molecule `CC1(C)CC(N2CCC3(CC2)OCC2(CO3)COC3(CCN(C4=CC(=[N+](CC5CC5)CC5CC5)CC(C)(C)C4)CC3)OC2)=CC(=[N+](CC2CC2)CC2CC2)C1` [compound 52] has an Onset [1, 5] of 48.5 s.

In the case of `COc1cc(CC2c3c(cc(OC)c(OC)c3OC)CC[N+]2(C)CCCOC(=O)CCC(=O)OCCC[N+]2(C)CCc3cc(OC)c(OC)c(OC)c3C2Cc2cc(OC)c(OC)c(OC)c2)cc(OC)c1OC` (stereo not drawn) [BW938], the Equi-efficacious dose ([1]; Table IV, rabbit paw twitch) is reported as 0.010 mg/kg, the “Duration (DURAT.)” value [1, 7] is reported as 167.0 min and the Onset [1, 7] is reported as 282.4 s. For the same molecule, the “Recovery (RECOV.)” value [1, 7] was 101.7 min, the BP % ([2]; in vivo) was -5.2% and the HR % ([2]; in vivo) was -3.8%.

With `CC[N+](CCC1OCCO1)=C1C=C(N2CCCC3(C2)OCC2(CO3)COC3(CCCN(C4=CC(=[N+](CC)CCC5OCCO5)CC(C)(C)C4)C3)OC2)CC(C)(C)C1` (stereo not drawn) [No. 21] the Onset [1, 6] was 33.3 s.

In the case of `CC(=O)O[C@H]1C[C@@H]2CC[C@@H]3[C@H](CC[C@@]4(C)[C@H]3C[C@H]([N+]3(C)CCCCC3)[C@@H]4OC(C)=O)[C@@]2(C)C[C@@H]1N1CCCCC1` [vecuronium], the ED90 ([3]; Canis lupus familiaris, iv, dog paw twitch, read-out: Equi-efficacious dose) is reported as 0.019 mg/kg, the “Duration (DURAT.)” value ([3]; dog, at equi-efficacious dose) is reported as 26.6 min and the Onset ([3]; dog, at equi-efficacious dose) is reported as 171.0 s. The “Recovery (RECOV.)” value ([3]; dog, at equi-efficacious dose) was 21.8 min, the ED90 ([1]; Oryctolagus cuniculus, Table IV, rabbit paw twitch, read-out: Equi-efficacious dose) was 0.019 mg/kg and the “Duration (DURAT.)” value [1, 7] was 16.8 min. The Onset [1, 7] was 97.3 s, the “Recovery (RECOV.)” value [1, 7] was 9.6 min and the BP % [2, 8] was 1.1%. It also gave an HR % [2, 8] of -1.9%, a BP % [4] of 2.3% and an HR % [4] of 3.5%.

`CC1(C)CC(N2CCC3(CC2)OCC2(CO3)COC3(CCN(C4=CC(=[N+]5CC6(C)CC5CC(C)(C)C6)CC(C)(C)C4)CC3)OC2)=CC(=[N+]2CC3(C)CC2CC(C)(C)C3)C1` [compound 39] gave an Onset [1, 5] of 75.9 s.

`CC1(C)CC(N2CCC3(CC2)OCC2(CO3)COC3(CCN(C4=CC(=[N+]5CCCC6(CC5)OCCO6)CC(C)(C)C4)CC3)OC2)=CC(=[N+]2CCCC3(CC2)OCCO3)C1` [compound 14] gave an Onset [1, 5] of 52.8 s.

With `CC[N+](Cc1cccs1)=C1C=C(N2CCC3(CC2)OCC2(CO3)COC3(CCN(C4=CC(=[N+](CC)Cc5cccs5)CC(C)(C)C4)CC3)OC2)CC(C)(C)C1` [compound 13] the Onset [1, 5] was 88.1 s.
